ChEMBL document CHEMBL2424640, “Dihydrothiazolopyridone derivatives as a novel family of positive allosteric modulators of the metabotropic glutamate 5 (mGlu5) receptor” (J Med Chem, 2013)

Key:
[1] = molecular target: Metabotropic glutamate receptor 5 (Homo sapiens, UniProt P41594)
Description: Positive allosteric modulation of human mGluR5a transfected in HEK293 cells by calcium mobilization assay

[2] = molecular target: Metabotropic glutamate receptor 8 (Homo sapiens, UniProt O00222)
Description: Positive allosteric modulation of human mGlu8 receptor expressed in HEK293 cells by fluorescent Ca2+ assay

[3] = molecular target: Metabotropic glutamate receptor 7 (Homo sapiens, UniProt Q14831)
Description: Positive allosteric modulation of human mGlu7 receptor expressed in HEK293 cells by fluorescent Ca2+ assay

[4] = molecular target: Metabotropic glutamate receptor 6 (Rattus norvegicus, UniProt P35349)
Description: Positive allosteric modulation of rat mGlu6 receptor expressed in CHO cells by [35S]-GTPgammaS binding assay

[5] = molecular target: Metabotropic glutamate receptor 3 (Homo sapiens, UniProt Q14832)
Description: Positive allosteric modulation of human mGlu3 receptor expressed in HEK293 cells by fluorescent Ca2+ assay

[6] = molecular target: Metabotropic glutamate receptor 2 (Homo sapiens, UniProt Q14416)
Description: Positive allosteric modulation of human mGlu2 receptor expressed in HEK293 cells by fluorescent Ca2+ assay

[7] = molecular target: Metabotropic glutamate receptor 1 (Homo sapiens, UniProt Q13255)
Description: Positive allosteric modulation of human mGlu1 receptor expressed in HEK293 cells by fluorescent Ca2+ assay

[8] = molecular target: Metabotropic glutamate receptor 4 (Homo sapiens, UniProt Q14833)
Description: Positive allosteric modulation of human mGlu4 receptor expressed in HEK293 cells by fluorescent Ca2+ assay

Metabotropic glutamate receptor 5, sequence (P41594 whole entry): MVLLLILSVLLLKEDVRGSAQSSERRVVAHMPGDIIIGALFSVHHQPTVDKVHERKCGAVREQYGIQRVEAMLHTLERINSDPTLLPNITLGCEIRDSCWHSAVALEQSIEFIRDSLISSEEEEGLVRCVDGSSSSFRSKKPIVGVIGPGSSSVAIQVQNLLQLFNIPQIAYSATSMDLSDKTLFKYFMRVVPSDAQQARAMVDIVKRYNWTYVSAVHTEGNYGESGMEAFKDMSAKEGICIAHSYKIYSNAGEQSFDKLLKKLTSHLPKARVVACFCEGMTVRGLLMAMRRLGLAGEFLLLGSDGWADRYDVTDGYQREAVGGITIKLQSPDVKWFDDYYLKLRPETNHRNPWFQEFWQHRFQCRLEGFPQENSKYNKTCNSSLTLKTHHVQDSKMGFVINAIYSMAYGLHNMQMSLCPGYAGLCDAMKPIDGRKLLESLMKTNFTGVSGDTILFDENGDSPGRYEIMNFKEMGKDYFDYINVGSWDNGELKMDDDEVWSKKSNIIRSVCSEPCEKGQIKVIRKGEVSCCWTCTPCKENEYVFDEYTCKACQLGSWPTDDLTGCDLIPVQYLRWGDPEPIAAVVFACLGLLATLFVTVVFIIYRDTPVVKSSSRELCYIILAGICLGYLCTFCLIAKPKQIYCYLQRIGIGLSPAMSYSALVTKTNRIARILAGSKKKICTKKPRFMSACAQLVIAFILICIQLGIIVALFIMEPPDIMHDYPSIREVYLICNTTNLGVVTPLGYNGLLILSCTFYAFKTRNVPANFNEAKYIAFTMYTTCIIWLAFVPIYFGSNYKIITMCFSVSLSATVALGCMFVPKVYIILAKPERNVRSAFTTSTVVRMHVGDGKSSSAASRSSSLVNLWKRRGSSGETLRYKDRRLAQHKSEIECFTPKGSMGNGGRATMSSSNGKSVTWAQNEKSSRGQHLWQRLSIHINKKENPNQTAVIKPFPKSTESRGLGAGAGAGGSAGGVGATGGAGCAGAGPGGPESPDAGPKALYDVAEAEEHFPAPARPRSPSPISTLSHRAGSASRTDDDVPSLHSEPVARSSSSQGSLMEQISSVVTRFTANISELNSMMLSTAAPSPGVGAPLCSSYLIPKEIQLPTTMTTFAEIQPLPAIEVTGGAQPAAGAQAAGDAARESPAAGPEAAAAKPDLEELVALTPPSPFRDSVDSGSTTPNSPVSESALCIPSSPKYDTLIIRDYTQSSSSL
Metabotropic glutamate receptor 8, sequence (O00222 whole entry): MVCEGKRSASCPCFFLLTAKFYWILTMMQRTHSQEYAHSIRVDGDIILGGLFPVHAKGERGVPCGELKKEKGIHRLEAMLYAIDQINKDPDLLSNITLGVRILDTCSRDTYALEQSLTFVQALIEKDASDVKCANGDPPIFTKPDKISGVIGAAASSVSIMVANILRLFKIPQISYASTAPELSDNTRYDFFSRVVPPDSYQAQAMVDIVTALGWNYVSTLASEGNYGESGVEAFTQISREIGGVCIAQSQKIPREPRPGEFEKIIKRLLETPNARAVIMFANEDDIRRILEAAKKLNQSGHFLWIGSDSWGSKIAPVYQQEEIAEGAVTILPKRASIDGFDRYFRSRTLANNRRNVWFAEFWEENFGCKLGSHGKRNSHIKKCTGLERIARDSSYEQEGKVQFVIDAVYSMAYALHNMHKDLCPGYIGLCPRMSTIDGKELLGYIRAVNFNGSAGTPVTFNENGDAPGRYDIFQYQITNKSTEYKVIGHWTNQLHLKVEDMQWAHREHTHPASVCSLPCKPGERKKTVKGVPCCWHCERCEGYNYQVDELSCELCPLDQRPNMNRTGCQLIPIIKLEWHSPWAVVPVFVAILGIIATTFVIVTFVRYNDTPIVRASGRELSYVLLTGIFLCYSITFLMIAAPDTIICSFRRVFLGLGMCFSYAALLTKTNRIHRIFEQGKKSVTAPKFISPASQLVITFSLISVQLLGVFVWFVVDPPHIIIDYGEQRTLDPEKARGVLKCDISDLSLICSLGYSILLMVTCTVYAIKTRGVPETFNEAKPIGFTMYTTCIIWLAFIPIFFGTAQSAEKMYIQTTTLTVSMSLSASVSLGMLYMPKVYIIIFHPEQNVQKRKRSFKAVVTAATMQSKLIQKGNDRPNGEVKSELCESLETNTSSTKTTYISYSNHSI
Metabotropic glutamate receptor 1, sequence (Q13255 whole entry): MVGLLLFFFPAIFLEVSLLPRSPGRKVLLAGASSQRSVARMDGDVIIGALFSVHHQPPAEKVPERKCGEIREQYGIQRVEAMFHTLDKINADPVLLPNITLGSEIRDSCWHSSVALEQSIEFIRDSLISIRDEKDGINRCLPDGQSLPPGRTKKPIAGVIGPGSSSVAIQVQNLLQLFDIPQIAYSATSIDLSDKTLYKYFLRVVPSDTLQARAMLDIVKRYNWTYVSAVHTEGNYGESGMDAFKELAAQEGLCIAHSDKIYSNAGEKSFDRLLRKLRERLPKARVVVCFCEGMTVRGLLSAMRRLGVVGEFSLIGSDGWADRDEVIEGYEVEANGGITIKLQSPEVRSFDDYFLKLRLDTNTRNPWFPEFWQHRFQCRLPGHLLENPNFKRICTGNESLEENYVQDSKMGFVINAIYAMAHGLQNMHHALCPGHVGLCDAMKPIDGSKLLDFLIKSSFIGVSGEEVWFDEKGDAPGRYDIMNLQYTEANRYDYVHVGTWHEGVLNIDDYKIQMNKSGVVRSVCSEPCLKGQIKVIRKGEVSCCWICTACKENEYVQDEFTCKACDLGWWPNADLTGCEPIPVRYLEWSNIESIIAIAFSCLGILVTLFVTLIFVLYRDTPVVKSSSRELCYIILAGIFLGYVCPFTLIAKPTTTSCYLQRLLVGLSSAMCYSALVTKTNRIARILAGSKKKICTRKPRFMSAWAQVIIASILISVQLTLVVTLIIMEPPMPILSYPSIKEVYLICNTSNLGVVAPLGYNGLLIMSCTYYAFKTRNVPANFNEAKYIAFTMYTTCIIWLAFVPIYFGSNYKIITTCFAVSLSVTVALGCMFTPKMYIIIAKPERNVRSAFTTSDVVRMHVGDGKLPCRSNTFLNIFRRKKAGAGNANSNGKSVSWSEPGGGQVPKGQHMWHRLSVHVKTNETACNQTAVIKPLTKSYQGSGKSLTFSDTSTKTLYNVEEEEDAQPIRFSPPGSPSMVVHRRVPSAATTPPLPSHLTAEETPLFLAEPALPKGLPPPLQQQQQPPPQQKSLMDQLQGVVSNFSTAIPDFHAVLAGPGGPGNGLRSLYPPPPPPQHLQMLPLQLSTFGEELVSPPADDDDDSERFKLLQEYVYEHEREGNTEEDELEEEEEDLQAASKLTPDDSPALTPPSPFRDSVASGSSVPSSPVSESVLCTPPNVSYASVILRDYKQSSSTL
Metabotropic glutamate receptor 2, sequence (Q14416 whole entry): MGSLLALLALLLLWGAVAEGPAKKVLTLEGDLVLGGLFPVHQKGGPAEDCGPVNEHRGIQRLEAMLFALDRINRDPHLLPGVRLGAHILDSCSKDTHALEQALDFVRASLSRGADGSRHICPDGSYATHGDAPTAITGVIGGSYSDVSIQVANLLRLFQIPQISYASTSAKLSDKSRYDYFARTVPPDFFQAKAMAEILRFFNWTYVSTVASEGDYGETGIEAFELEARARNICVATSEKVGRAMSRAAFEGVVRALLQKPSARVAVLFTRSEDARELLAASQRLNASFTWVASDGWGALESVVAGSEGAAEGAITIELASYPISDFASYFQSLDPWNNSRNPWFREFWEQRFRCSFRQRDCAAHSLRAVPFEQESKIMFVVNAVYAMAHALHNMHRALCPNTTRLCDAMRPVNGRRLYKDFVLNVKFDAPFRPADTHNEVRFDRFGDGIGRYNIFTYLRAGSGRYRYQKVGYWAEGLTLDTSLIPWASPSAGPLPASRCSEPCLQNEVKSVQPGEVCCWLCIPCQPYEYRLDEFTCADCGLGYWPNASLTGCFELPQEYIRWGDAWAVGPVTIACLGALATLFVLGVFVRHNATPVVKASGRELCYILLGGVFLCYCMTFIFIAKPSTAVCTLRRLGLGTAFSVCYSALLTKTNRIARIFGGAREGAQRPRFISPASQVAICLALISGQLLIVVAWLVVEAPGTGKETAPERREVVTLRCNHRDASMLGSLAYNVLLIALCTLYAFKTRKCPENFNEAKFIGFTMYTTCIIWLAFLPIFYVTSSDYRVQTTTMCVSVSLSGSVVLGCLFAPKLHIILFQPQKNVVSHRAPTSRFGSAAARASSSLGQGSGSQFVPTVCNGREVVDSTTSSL
Metabotropic glutamate receptor 7, sequence (Q14831 whole entry): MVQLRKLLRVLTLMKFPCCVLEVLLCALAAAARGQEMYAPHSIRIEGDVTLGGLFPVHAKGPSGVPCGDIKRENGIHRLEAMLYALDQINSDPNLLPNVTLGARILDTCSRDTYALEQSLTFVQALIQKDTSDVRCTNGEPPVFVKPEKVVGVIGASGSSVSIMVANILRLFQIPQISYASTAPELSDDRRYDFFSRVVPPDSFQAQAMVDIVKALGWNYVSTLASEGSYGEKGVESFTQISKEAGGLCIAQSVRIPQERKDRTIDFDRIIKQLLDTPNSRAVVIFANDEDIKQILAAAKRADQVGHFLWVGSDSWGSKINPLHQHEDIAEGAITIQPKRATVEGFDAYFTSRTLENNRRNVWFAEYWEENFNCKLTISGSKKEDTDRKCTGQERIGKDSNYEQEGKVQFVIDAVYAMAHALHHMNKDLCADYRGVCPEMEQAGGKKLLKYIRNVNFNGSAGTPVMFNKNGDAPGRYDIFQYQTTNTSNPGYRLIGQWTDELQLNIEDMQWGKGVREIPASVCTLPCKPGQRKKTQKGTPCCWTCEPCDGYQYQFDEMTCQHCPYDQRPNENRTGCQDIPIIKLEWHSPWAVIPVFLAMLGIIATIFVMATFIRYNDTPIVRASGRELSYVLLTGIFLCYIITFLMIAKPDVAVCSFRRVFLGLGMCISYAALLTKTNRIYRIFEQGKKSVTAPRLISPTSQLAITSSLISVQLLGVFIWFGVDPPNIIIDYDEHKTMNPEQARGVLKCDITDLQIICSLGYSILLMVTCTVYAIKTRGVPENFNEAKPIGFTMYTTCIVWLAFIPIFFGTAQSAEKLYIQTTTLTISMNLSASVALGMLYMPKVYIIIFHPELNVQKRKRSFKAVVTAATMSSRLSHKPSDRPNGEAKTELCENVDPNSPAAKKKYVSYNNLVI

Q: With `O=C1c2sc(COc3ccccc3)nc2CCN1c1ccccn1` as the molecule, how does the EC50 [1] read?
A: The EC50 was 1020 nM.

Q: How did the EC50 [1] turn out when `O=C1CCc2cc(O)ccc2O1` was run?
A: The EC50 was over 10000 nM.

Q: `O=C1NCCc2nc(C#Cc3ccccc3)sc21` was tested. Which EC50 [1] did it give?
A: The EC50 was 123 nM.

Q: How did the EC50 [1] turn out when `COCCN1CCc2nc(COc3ccccc3)sc2C1=O` was run?
A: The EC50 was 2310 nM.

Q: For `O=C1c2sc(COc3ccccc3)nc2CCN1c1ncccc1F`, which EC50 [1] is on record?
A: The EC50 was 791 nM.

Q: With `O=C1c2sc(COc3cccc(F)c3)nc2CCN1c1ccc(F)cc1` as the molecule, how does the EC50 [1] read?
A: The EC50 was 77 nM.

Q: `O=C1c2sc(COc3ccccc3)nc2CCN1c1cccnc1` was tested. Which EC50 [1] did it give?
A: Its EC50 is 1760 nM.

Q: How did the EC50 [1] turn out when `O=C1c2sc(OCc3ccccc3)nc2CCN1c1ccc(F)cc1` was run?
A: Its EC50 is 1130 nM.

Q: With `O=C1c2sc(COc3ccccc3)nc2CCN1c1ccc(F)cc1` as the molecule, how does the EC50 [1] read?
A: Its EC50 is 96 nM.

Q: `O=C1c2sc(COc3ccccc3)nc2CCN1c1ccc(F)cc1F` was tested. Which EC50 [1] did it give?
A: The EC50 was 66 nM.

Q: Which EC50 [1] does the source give for `O=C(c1ccc(F)cc1)N1CCC[C@H](c2nc(-c3ccc(F)cc3)no2)C1` here?
A: Its EC50 is 199 nM.

Q: With `CN1CCc2nc(C#Cc3ccccc3)sc2C1=O` as the molecule, how does the EC50 [1] read?
A: Its EC50 is 193 nM.

Q: `O=C1c2sc(COc3ccccc3)nc2CCN1c1ccc(F)cn1` was tested. Which EC50 [1] did it give?
A: Its EC50 is 621 nM.

Q: What does the source list for `O=C1CCOc2cc(COc3ccccc3)ccc21`?
A: EC50 [2]: > 10000 nM; EC50 [3]: > 10000 nM; EC50 [4]: > 10000 nM; EC50 [5]: > 10000 nM; EC50 [6]: > 10000 nM; EC50 [7]: > 10000 nM

Q: With `COCCN1CCc2nc(C#Cc3ccccc3)sc2C1=O` as the molecule, how does the EC50 [1] read?
A: Its EC50 is 119 nM.

Q: With `O=C1c2sc(COc3ccccc3)nc2CCN1CC1CC1` as the molecule, how does the EC50 [1] read?
A: Its EC50 is 250 nM.

Q: Which EC50 [1] does the source give for `O=C1c2sc(COc3ccc(F)cc3)nc2CCN1c1ccc(F)cc1` here?
A: Its EC50 is 739 nM.

Q: How did the EC50 [2] turn out when `O=C1CCCc2nc(C#Cc3ccccc3)sc21` was run?
A: The EC50 was over 10000 nM.

Q: And the EC50 [3]?
A: Its EC50 is over 10000 nM.

Q: And the EC50 [4]?
A: Its EC50 is over 10000 nM.

Q: What about the EC50 [5] of the same molecule?
A: Its EC50 is over 10000 nM.

Q: What about the EC50 [8] of the same molecule?
A: The EC50 was over 10000 nM.

Q: And the EC50 [6]?
A: Its EC50 is over 10000 nM.

Q: What about the EC50 [7] of the same molecule?
A: Its EC50 is over 10000 nM.

Q: And the EC50 [1]?
A: Its EC50 is 33 nM.

Q: `CC(C)N1CCc2nc(COc3ccccc3)sc2C1=O` was tested. Which EC50 [1] did it give?
A: The EC50 was 1210 nM.

Q: How did the EC50 [1] turn out when `CN1CCc2nc(OCc3ccccc3)sc2C1=O` was run?
A: The EC50 was 1750 nM.

Q: `O=C1CCOc2cc(OCc3ccccc3)ccc21` was tested. Which EC50 [2] did it give?
A: Its EC50 is over 10000 nM.

Q: What about the EC50 [3] of the same molecule?
A: Its EC50 is over 10000 nM.

Q: And the EC50 [4]?
A: The EC50 was over 10000 nM.

Q: And the EC50 [5]?
A: The EC50 was over 10000 nM.

Q: And the EC50 [6]?
A: Its EC50 is over 10000 nM.

Q: And the EC50 [7]?
A: The EC50 was over 10000 nM.

Q: For `O=C1c2sc(COc3ccccc3F)nc2CCN1c1ccc(F)cc1`, which EC50 [1] is on record?
A: Its EC50 is 553 nM.

Q: For `O=C1c2sc(COc3ccccc3)nc2CCN1C1CC1`, which EC50 [1] is on record?
A: The EC50 was 1460 nM.

Q: For `O=C(O)c1ccccc1` [BENZOIC ACID], which EC50 [1] is on record?
A: The EC50 was over 10000 nM.

Q: With `O=C1c2sc(COc3ccccc3)nc2CCN1CC1CCOCC1` as the molecule, how does the EC50 [1] read?
A: Its EC50 is 851 nM.
